This passage reports IC50 and Emax results from patent US11433053B2, “LSD1 inhibitor and preparation method and application thereof” (CSPC ZHONGQI PHARMACEUTICAL TECHNOLOGY (SHIJIAZHUANG) CO., …, priority 2017, dated 2022).

One test deals with human LSD1 (Homo sapiens (Human), UniProt O60341). Description: Evaluation of enzyme activity: LSD1 fluorescence coupling enzyme assay (HRP/Amplex Red). In kind it is biochemical. To be noted: human LSD1, histone H3(1-21)K4me2 peptide 10 μM, 30 min pre-incubation. The procedure:
The purpose of this test is to test the in vitro inhibitory activities of the compounds against LSD1. The enzyme used in this experiment was human LSD1, and the standard substrate was histone H3(1-21)K4me2 peptide (10 μM). HCI-2509 (SP2509) was used as reference compound, and the fluorescence coupling enzyme assay was employed. The production of FAD-dependent H2O2 as a result of demethylase activity of LSD1 was measured by coupling with HRP and Amplex Red. Compounds as well as control compound HCl-2509 were tested in 10-dose IC50 mode with a 3-fold serial dilution in duplicate starting at 10 μm. All compounds were pre-incubated 30 mins with enzyme before added substrate to start reaction. Fluorescence measurement: Ex/Em=535/590 by EnVision.
The test compound's inhibitory activities against LSD11 was classified as: + for IC50≤50 nM; ++ for IC50>50 nM and ≤100 nM; +++ for IC50>100 nM and ≤500 nM, and the results are shown in Table 1.

Another test relates to H1417 cells. Description: Cell proliferation inhibitory activity on H1417 cells (CellTiter-Glo, 10 days). In kind it is cell-based, human. To be noted: Homo sapiens; for IC50: NCI-H1417, 240 h, H1417 cells, 10 days incubation; for Emax: NCI-H1417, H1417 cells, highest percentage inhibition of cell viability, read-out: Maximum inhibition percentage (%). How it is done:
Experimental purposes: To test the proliferation inhibitory activities of the test compounds on H1417 cells.
Experimental materials: RPMI 1640 medium, fetal bovine serum, Promega CellTiter-Glo reagent. The H1417 cell line purchased from ATCC. Envision Multi-Label Analyzer (PerkinElmer).
Experimental method: H1417 cells were seeded in a black 384-well plate, 1000 cells per well in […] of cell suspension. The test compounds were diluted 3-fold with Epmotion to the 10th concentration i.e, the compounds were diluted from 10 mmol to […], and a double duplicate well experiment was set. 198 μL medium was added to the middle plate, according to the corresponding position, 2 μL gradient diluted compounds were added to the middle plate. The mixture was mixed evenly and transferred 20 μL per well to the cell plates. The cell plates were incubated in a carbon dioxide incubator for 10 days. 25 μL of Promega CellTiter-Glo reagent per well was added to the cell plate and the mixture was incubated for 10 minutes at room temperature to stabilize the luminescence signal. Readings were performed by PerkinElmer Envision multi-label analyzer.
Data analysis: The original data was converted to the inhibition rate by the equation (Max-Ratio)/(Max-Min)*100%, and the value of IC50 can be obtained by curve fitting with four parameters. (Model 205 in XLFIT5, iDBS)
The growth inhibitory activities of the test compounds on H1417 cells were classified as + for IC50≤100 nM; ++ for IC50>100 nM and ≤500 nM; +++ for IC50>500 nM and ≤1000 nM; the highest percentage inhibition of cell viability was classified as: […]; 90%>B≥70%; 70%>C≥50%.
A general note: Cellular ATP, detected with luciferase, serves as a proxy for viable cell number.

The structures appear in SMILES notation.

The IC50 is the concentration that gives 50% inhibition. Low readings indicate inhibition by little substance, high ones a need for much substance. Take `COC(=O)c1ccc(CN2CCC(c3nc(C4(CN[C@H]5CC5c5ccccc5)CC4)no3)CC2)cc1` (single isomer, unassigned) [Example 165]: at human LSD1, the IC50 lay within 0.1 to 0.5 µM.
Same read-out and setting: the same measure for `CC(C)(C)n1nnc(C2(CN[C@H]3C[C@@H]3c3ccccc3)CC2)n1` [Example 3]: 0.05 to 0.1 µM; for `CN(C)CC1(CN[C@H]2C[C@@H]2c2ccccc2)CC1` [Example 5]: 0.05 to 0.1 µM; for `CCN(CC)CC1(CN[C@H]2CC2c2ccccc2)CC1` (some centres unmarked) [Example 7]: 0.1 to 0.5 µM.
Same read-out and setting: for `Fc1ccccc1CNCC1(CN[C@H]2CC2c2ccccc2)CC1` (some centres unmarked) [Example 10] the value was at most 0.05 µM; for `c1ccc(C2C[C@@H]2NCC2(CNCc3ccc[nH]3)CC2)cc1` (some centres unmarked) [Example 11], at most 0.05 µM; for `c1ccc([C@H]2C[C@@H]2NCC2(CNCc3cnc[nH]3)CC2)cc1` [Example 12], 0.05 to 0.1 µM.
On the same count and under the same terms, for `c1ccc(C2C[C@@H]2NCC2(CNCC3CCNC3)CC2)cc1` (some centres unmarked) [Example 13] the value was at most 0.05 µM.
As to `CCn1ncnc1CNCC1(CN[C@H]2C[C@@H]2c2ccccc2)CC1` [Example 14], the IC50 on human LSD1 lay within 0.1 to 0.5 µM.
For the compound `FC(F)(F)c1ccc(CNCC2(CN[C@H]3C[C@@H]3c3ccccc3)CC2)cn1` [Example 15], the IC50 against human LSD1 lay within 0.05 to 0.1 µM.
Still for that read-out and setting: the same measure for `c1ccc([C@H]2C[C@@H]2NCC2(CNCc3nccs3)CC2)cc1` [Example 16]: 0.1 to 0.5 µM.
Same read-out and setting: the same measure for `c1ccc([C@H]2C[C@@H]2NCC2(CNCc3cnc4n3CCC4)CC2)cc1` [Example 17]: 0.05 to 0.1 µM.
The same measure, in the same setting: the same measure for `Clc1ccc2nc(C3(CN[C@H]4CC4c4ccccc4)CC3)oc2c1` (some centres unmarked) [Example 46]: at most 0.05 µM.
Turning to `Clc1ccc2oc(C3(CN[C@H]4CC4c4ccccc4)CC3)nc2c1` (some centres unmarked) [Example 47], in the test with H1417 cells, the IC50 was in the range of 0.1 to 0.5 µM and the Emax was 50 to 70%.
As for `Clc1ccc2oc(C3(CN[C@H]4C[C@@H]4c4ccccc4)CC3)nc2c1` [Example 47], on human LSD1, the IC50 was in the range of 0.05 to 0.1 µM.
The compound `N#Cc1ccc(CNC2(CN[C@H]3CC3c3ccccc3)CCC2)cc1` (some centres unmarked) [Example 48] returned a 50% inhibitory concentration (IC50) against human LSD1 of at most 0.05 µM.
With `c1ccc(C2C[C@@H]2NCC2(CN3CCc4ccncc4C3)CC2)cc1` (some centres unmarked) [Example 49], in the test on H1417 cells, the IC50 was 0.5 to 1 µM and the Emax lay in the range of 90 to 100%.
On the same counts, the results for `FC(F)(F)c1ccc2c(c1)CN(CC1(CN[C@H]3CC3c3ccccc3)CC1)CC2` (some centres unmarked) [Example 51] are 0.1 to 0.5 µM and 70 to 90%.
On the same counts, the results for `O=C(O)c1ccc2c(c1)CN(CC1(CN[C@H]3CC3c3ccccc3)CC1)CC2` (some centres unmarked) [Example 53] are 0.5 to 1 µM and 90 to 100%.
The corresponding values for `O=C(O)C1CCN(CC2(CN[C@H]3CC3c3ccccc3)CC2)CC1` (some centres unmarked) [Example 54] are 0.5 to 1 µM and 50 to 70%.
With `FC(F)(F)c1ccc2c(c1)CN(CC1(CN[C@H]3CC3c3ccccc3)CC1)C2` (some centres unmarked) [Example 55], in the test on H1417 cells, the IC50 fell in the range of 0.1 to 0.5 µM and the Emax was in the range of 70 to 90%.
As to `O=C(O)c1ccc(C2CCN(CC3(CN[C@H]4CC4c4ccccc4)CC3)CC2)cc1` (some centres unmarked) [Example 56], in the test on H1417 cells, the IC50 lay in the range of 0.5 to 1 µM and the Emax lay in the range of 50 to 70%.
The corresponding values for `c1ccc(C2C[C@@H]2NCC2(CN3CCc4ccccc4CC3)CC2)cc1` (some centres unmarked) [Example 58] are 0.1 to 0.5 µM and 70 to 90%.
The corresponding values for `c1ccc(C2C[C@@H]2NCC2(CN3CCCCc4ccccc43)CC2)cc1` (some centres unmarked) [Example 60] are 0.5 to 1 µM and 50 to 70%.
The corresponding values for `c1ccc(C2C[C@@H]2NCC2(CN3Cc4ccncc4C3)CC2)cc1` (some centres unmarked) [Example 61] are 0.5 to 1 µM and 50 to 70%.
As for `Fc1ccc(-c2nc(C3(CN[C@H]4CC4c4ccccc4)CC3)no2)cc1` (some centres unmarked) [Example 63], at human LSD1, the IC50 was at most 0.05 µM.
With `O=C(O)C1CCC(c2nc(C3(CN[C@H]4CC4c4ccccc4)CC3)no2)CC1` (some centres unmarked) [Example 67], in the test with H1417 cells, the IC50 lay within 0.1 to 0.5 µM and the Emax lay within 50 to 70%.
At human LSD1, `c1ccc(C2C[C@@H]2NCC2(c3noc4ccccc34)CC2)cc1` (some centres unmarked) [Example 71] showed an IC50 of at most 0.05 µM.
On the same count and under the same terms, the same measure for `c1ccc(C2C[C@@H]2NCC2(c3noc4ccccc34)CCC2)cc1` (some centres unmarked) [Example 72]: at most 0.05 µM.
In the case of `c1ccc(C2C[C@@H]2NCC2(c3nc4ccccc4o3)CC2)cc1` (some centres unmarked) [Example 76], in the test with H1417 cells, the IC50 fell in the range of 0.1 to 0.5 µM and the Emax lay in the range of 50 to 70%.
For `c1ccc([C@H]2C[C@@H]2NCC2(c3nc4ccccc4o3)CC2)cc1` [Example 76], on human LSD1, the IC50 was 0.05 to 0.1 µM.
With `c1ccc(C2C[C@@H]2NCC2(CN3CCCC3)CC2)cc1` (some centres unmarked) [Example 77], in the test on H1417 cells, the IC50 was at most 0.1 µM and the Emax fell in the range of 70 to 90%.
On the same counts, the results for `FC(F)(F)C1CCN(CC2(CN[C@H]3CC3c3ccccc3)CC2)CC1` (some centres unmarked) [Example 80] are 0.1 to 0.5 µM and 50 to 70%.
On the same counts, the results for `N#CC1CCN(CC2(CN[C@H]3CC3c3ccccc3)CC2)CC1` (some centres unmarked) [Example 81] are at most 0.1 µM and 50 to 70%.
Consider `O=C(O)c1ccc(CN2CCC(c3nc(C4(CN[C@H]5CC5c5ccccc5)CC4)no3)CC2)cc1` (some centres unmarked) [Example 82], for which, in the test with H1417 cells, the IC50 lay within 0.1 to 0.5 µM and the Emax is 50 to 70%.
`O=C(O)c1ccc(NCC2(CN[C@H]3C[C@@H]3c3ccccc3)CCC2)nc1` [Example 84] returned an IC50 at human LSD1 of 0.1 to 0.5 µM.
The compound `FC1CC(CN[C@H]2CC2c2ccccc2)(c2cccnc2)C1` (some centres unmarked) [Example 85] displayed an IC50 at human LSD1 of at most 0.05 µM.
Turning to `OC1CC(CN[C@H]2CC2c2ccccc2)(c2cccnc2)C1` (some centres unmarked) [Example 86], the IC50 at human LSD1 was at most 0.05 µM.
Still for that read-out and setting: the same measure for `COc1ccccc1-c1nc(C2(CN[C@H]3CC3c3ccccc3)CCC2)no1` (some centres unmarked) [Example 90]: at most 0.05 µM; for `N#Cc1ccccc1-c1nc(C2(CN[C@H]3CC3c3ccccc3)CCC2)no1` (some centres unmarked) [Example 91]: at most 0.05 µM; for `N#Cc1cccc(-c2nc(C3(CN[C@H]4CC4c4ccccc4)CCC3)no2)c1` (some centres unmarked) [Example 92]: at most 0.05 µM.
The same measure, in the same setting: for `FC1(F)Oc2ccc(-c3nc(C4(CN[C@H]5CC5c5ccccc5)CCC4)no3)cc2O1` (some centres unmarked) [Example 93] the value was at most 0.05 µM; for `COc1ccc2nc(-c3nc(C4(CN[C@H]5CC5c5ccccc5)CCC4)no3)sc2c1` (some centres unmarked) [Example 94], at most 0.05 µM.
With `Clc1ccc(-n2cc(C3(CN[C@H]4CC4c4ccccc4)CC3)nn2)cc1` (some centres unmarked) [Example 96], in the test on H1417 cells, the IC50 lay within 0.5 to 1 µM and the Emax lay within 50 to 70%.
With `N#Cc1ccc(C(=O)NC2(CN[C@H]3CC3c3ccccc3)CCC2)cc1` (some centres unmarked) [Example 97], the IC50 at human LSD1 was at most 0.05 µM.
For the compound `CC1CCN(CC2(CN[C@H]3CC3c3ccccc3)CC2)C1` (some centres unmarked) [Example 98], in the test with H1417 cells, the IC50 lay in the range of 0.1 to 0.5 µM and the Emax lay in the range of 50 to 70%.
On human LSD1, `CC1CCN(CC2(CN[C@H]3C[C@@H]3c3ccccc3)CC2)C1` (some centres unmarked) [Example 98] had an IC50 of 0.05 to 0.1 µM.
Take `O=C(O)c1ccc2c(c1)CCN(CC1(CN[C@H]3CC3c3ccccc3)CC1)C2` (some centres unmarked) [Example 101]: in the test with H1417 cells, the IC50 lay in the range of 0.5 to 1 µM and the Emax was in the range of 50 to 70%.
On the same counts, the results for `O=C(O)c1ccc(N2CCC(c3nc(C4(CN[C@H]5CC5c5ccccc5)CC4)no3)CC2)cc1` (some centres unmarked) [Example 103] are 0.5 to 1 µM and 50 to 70%.
On the same counts, the results for `CC(=O)N1CCC(c2nc(C3(CN[C@H]4CC4c4ccccc4)CC3)no2)CC1` (some centres unmarked) [Example 105] are 0.1 to 0.5 µM and 70 to 90%.
On the same counts, the results for `CS(=O)(=O)n1cc2c(n1)CN(CC1(CN[C@H]3CC3c3ccccc3)CC1)C2` (some centres unmarked) [Example 106] are 0.5 to 1 µM and 50 to 70%.
For the compound `CN(C)[C@H]1CC[C@H](c2nc(C3(CN[C@H]4CC4c4ccccc4)CC3)no2)CC1` (some centres unmarked) [Example 108], in the test with H1417 cells, the IC50 is 0.5 to 1 µM and the Emax lay within 70 to 90%.
In the case of `CC1(C)CCN(CC2(CN[C@H]3CC3c3ccccc3)CC2)C1` (some centres unmarked) [Example 202], in the test with H1417 cells, the IC50 fell in the range of 0.1 to 0.5 µM and the Emax lay in the range of 70 to 90%.
In the case of `c1ccc(C2C[C@@H]2NCC2(CN3CCC3)CC2)cc1` (some centres unmarked) [Example 211], in the test on H1417 cells, the IC50 is 0.1 to 0.5 µM and the Emax was 50 to 70%.
The corresponding values for `C[C@H]1CCCN1CC1(CN[C@H]2CC2c2ccccc2)CC1` (some centres unmarked) [Example 212] are 0.1 to 0.5 µM and 50 to 70%.
As to `CN1CCC(c2nc(C3(CN[C@H]4CC4c4ccccc4)CC3)no2)CC1=O` (some centres unmarked) [Example 218], in the test on H1417 cells, the IC50 was 0.1 to 0.5 µM and the Emax fell in the range of 70 to 90%.
